{
  "source": "patent US20060251714A1",
  "about": "“Pharmaceutical formulations of amyloid inhibiting compounds” (priority 2005, published 2006)",
  "assay_type_in_all_cases": "in vivo, human",
  "key": {"[1]": {"test": "Example 8 Part I: multiple rising oral doses of NC-758 in healthy young male and elderly subjects, plasma pharmacokinetics", "settings": "fasted; for AUC∞: mean, only subjects with estimable elimination rate constant", "protocol": "(§1) In the following examples and elsewhere herein, terms are as defined below. The pharmacokinetic parameters were derived by non-compartmental analysis using WinNonlin® (Pharsight Corporation, Mountain View, Calif.) or SAS® for Windows® (SAS Institute Inc., Cary, N.C.).\nThe pharmacokinetic profile of multiple rising oral doses of 3-APS free acid (NC-758 of Table 3 above) in healthy male young subjects (18-45 years) and healthy male and female elderly (≧55 years) subjects is assessed. For doses at multiples of 100 mg, multiple 100 mg tables are administered. […] Part I is a randomized, double-blind, placebo-controlled study to assess the pharmacokinetic profile of 2 multiple rising oral doses of NC-758 in healthy young (18-45 years) male subjects. […] In Part I, 3-APS is administered as a single dose on Days 1 and 12 and on Days 2-11, twice daily at 12 hour intervals. Blood samples are collected through 24 h after the first dose on Day 1, before each morning dose on Days 2 to 11, and through 48 h after the final dose on Day 12. For Part II, blood samples are collected through 36 h. Plasma concentrations of 3-APS are determined using a validated LC-MS/MS method."}, "[2]": {"test": "Example 9 Part I: single oral doses of NC-758-1 in healthy elderly volunteers, plasma pharmacokinetics", "settings": "elderly male and female subjects, fasted; for AUC∞: mean, only subjects with estimable elimination rate constant", "excerpt": "as §1\nPart I—The pharmacokinetic profile and the effect of food on single oral doses of 3-APS free acid (modified-release enteric-coated tablet as described in Table 5 above, hereinafter “NC-758-1”) in healthy male and female elderly (≧55 years) volunteers. For doses at multiples of 50 mg, multiple 50 mg tables are administered. The test is an open label, three-period crossover study to assess the pharmacokinetic profile of 3 single oral doses of NC-758-1 in healthy elderly (≧55 years) male and female subjects. The blood samples are collected during 24 h following dosing. Plasma concentrations of 3-APS are determined using a validated LC-MS/MS method."}, "[3]": {"test": "Example 10: 12-week placebo-controlled study in mild to moderate Alzheimer's Disease patients, plasma pharmacokinetics", "settings": "AD patients; for AUC∞: mean, only patients with estimable elimination rate constant", "excerpt": "as §1\nAUCss—the area under the plasma concentrations versus time curve during a dosing interval at steady state.\nA multicenter, randomized, double-blind, placebo-controlled and parallel designed study is made with 3-APS in the formulation described in Table 5 above in patients suffering from mild to moderate Alzheimer's Disease (AD). An objective of this study is to assess the safety and tolerability of 3-APS and to assess its pharmacokinetics in AD patients. A total of fifty-eight (58) mild to moderate AD patients (MMSE scores=13 to 26) are enrolled from 6 centers in the United States. Patients are randomized to receive in 1:1:1:1 ratio of NC-758-1 at 50, 100, 150 mg BID or placebo BID for 12 weeks. Study medication is administered orally (tablet). For doses at multiples of 50 mg, multiple 50 mg tables are administered. Each patient is evaluated on 6 occasions at screening, baseline [Week 0], weeks 2, 4, 8 and 12. Blood samples are collected from each patient prior to dosing and at specified time points through 12 h post-dose after the first dose (Week 0) and the last dose (Week 12). Blood samples are also collected prior to the first dose of the day during Week 2, 4 and 8 visits."}, "CSF Aβ42": {"tested_on": "CSF Aβ42", "test": "Example 11: additional tests, CSF Aβ42 level and Aβ42/Aβ40 ratio in treated patients", "protocol": "FIG. 1 Change from Baseline CSF Aβ42 versus 3-APS doses\nFIG. 2 Effect of 3-APS on CSF Aβ42/40 Ratio in Mild-to-Moderate AD Patients—Placebo vs. 150 mg BID\nFIG. 3 Effect of 3-APS on CSF Aβ42/40 Ratio in Mild-to-Moderate AD Patients 0 and 50 mg 3-APS\nFIG. 4 Effect of 3-APS on CSF Aβ42/40 Ratio in Mild-to-Moderate AD Patients 100 and 150 mg 3-APS"}, "[4]": {"settings": "NC-758 100 mg BID, Day 12 (repeated), young (18-45 years) male subjects, n = 6, mean"}, "[5]": {"settings": "NC-758 200 mg BID, Day 1, elderly (≧55 years) male and female subjects, n = 6, mean"}, "[6]": {"settings": "NC-758 200 mg BID, Day 1, young (18-45 years) male subjects, n = 6, mean"}, "[7]": {"settings": "NC-758 200 mg BID, Day 12 (repeated), elderly (≧55 years) male and female subjects, n = 6, mean"}, "[8]": {"settings": "NC-758 200 mg BID, Day 12 (repeated), young (18-45 years) male subjects, n = 5, mean"}, "[9]": {"settings": "single oral 50 mg NC-758-1 (Table 5 tablet), n = 9, mean"}, "[10]": {"settings": "single oral 100 mg NC-758-1 (Table 5 tablet), n = 9, mean"}, "[11]": {"settings": "single oral 150 mg NC-758-1 (Table 5 tablet), n = 8, mean"}, "[12]": {"settings": "50 mg BID (Table 5 tablet), Week 0 (single dose), n = 15, mean"}, "[13]": {"settings": "100 mg BID (Table 5 tablet), Week 0 (single dose), n = 16, mean"}, "[14]": {"settings": "150 mg BID (Table 5 tablet), Week 0 (single dose), n = 14, mean"}},
  "data": [
    {"smiles": "NCCCS(=O)(=O)O", "note": "[3-APS, 3-amino-1-propanesulfonic acid]", "values": [
      {"measurement": "AUC∞", "setting": "[1]; NC-758 100 mg BID, Day 1, young (18-45 years) male subjects", "value": 1017, "unit": "ng·h/mL"},
      {"measurement": "Cmax", "setting": "[1]; NC-758 100 mg BID, Day 1, young (18-45 years) male subjects, n = 6, mean", "value": 282, "unit": "ng/mL"},
      {"measurement": "AUC0-12h", "setting": "[1]; [4]", "value": 1434, "unit": "ng·h/mL"},
      {"measurement": "Cmax", "setting": "[1]; [4]", "value": 256, "unit": "ng/mL"},
      {"measurement": "AUC∞", "setting": "[1]; NC-758 200 mg BID, Day 1, elderly (≧55 years) male and female subjects", "value": 5503, "unit": "ng·h/mL"},
      {"measurement": "AUC0-12h", "setting": "[1]; [5]", "value": 5020, "unit": "ng·h/mL"},
      {"measurement": "Cmax", "setting": "[1]; [5]", "value": 897, "unit": "ng/mL"},
      {"measurement": "AUC∞", "setting": "[1]; NC-758 200 mg BID, Day 1, young (18-45 years) male subjects", "value": 3206, "unit": "ng·h/mL"},
      {"measurement": "AUC0-12h", "setting": "[1]; [6]", "value": 2865, "unit": "ng·h/mL"},
      {"measurement": "Cmax", "setting": "[1]; [6]", "value": 517, "unit": "ng/mL"},
      {"measurement": "AUC0-12h", "setting": "[1]; [7]", "value": 6287, "unit": "ng·h/mL"},
      {"measurement": "Cmax", "setting": "[1]; [7]", "value": 880, "unit": "ng/mL"},
      {"measurement": "AUC0-12h", "setting": "[1]; [8]", "value": 4152, "unit": "ng·h/mL"},
      {"measurement": "Cmax", "setting": "[1]; [8]", "value": 581, "unit": "ng/mL"},
      {"measurement": "AUC∞", "setting": "[2]; single oral 50 mg NC-758-1 (Table 5 tablet)", "value": 1566, "unit": "ng·h/mL"},
      {"measurement": "AUC(0-t)", "setting": "[2]; [9]", "value": 1537, "unit": "ng·h/mL"},
      {"measurement": "Cmax", "setting": "[2]; [9]", "value": 469, "unit": "ng/mL"},
      {"measurement": "AUC∞", "setting": "[2]; single oral 100 mg NC-758-1 (Table 5 tablet)", "value": 2871, "unit": "ng·h/mL"},
      {"measurement": "AUC(0-t)", "setting": "[2]; [10]", "value": 3128, "unit": "ng·h/mL"},
      {"measurement": "Cmax", "setting": "[2]; [10]", "value": 745, "unit": "ng/mL"},
      {"measurement": "AUC∞", "setting": "[2]; single oral 150 mg NC-758-1 (Table 5 tablet)", "value": 4497, "unit": "ng·h/mL"},
      {"measurement": "AUC(0-t)", "setting": "[2]; [11]", "value": 5303, "unit": "ng·h/mL"},
      {"measurement": "Cmax", "setting": "[2]; [11]", "value": 1029, "unit": "ng/mL"},
      {"measurement": "AUC∞", "setting": "[3]; 50 mg BID (Table 5 tablet), Week 0 (single dose)", "value": 1396, "unit": "ng·h/mL"},
      {"measurement": "AUC(0-t)", "setting": "[3]; [12]", "value": 1321, "unit": "ng·h/mL"},
      {"measurement": "Cmax", "setting": "[3]; [12]", "value": 310, "unit": "ng/mL"},
      {"measurement": "Tmax", "setting": "[3]; 50 mg BID (Table 5 tablet), Week 12 (repeated), n = 15, median", "value": 3, "unit": "h"},
      {"measurement": "AUC∞", "setting": "[3]; 100 mg BID (Table 5 tablet), Week 0 (single dose)", "value": 2569, "unit": "ng·h/mL"},
      {"measurement": "AUC(0-t)", "setting": "[3]; [13]", "value": 2467, "unit": "ng·h/mL"},
      {"measurement": "Cmax", "setting": "[3]; [13]", "value": 618, "unit": "ng/mL"},
      {"measurement": "Tmax", "setting": "[3]; 100 mg BID (Table 5 tablet), Week 0 (single dose), n = 16, median", "value": 4.5, "unit": "h"},
      {"measurement": "Tmax", "setting": "[3]; 100 mg BID (Table 5 tablet), Week 12 (repeated), n = 14, median", "value": 3.5, "unit": "h"},
      {"measurement": "AUC∞", "setting": "[3]; 150 mg BID (Table 5 tablet), Week 0 (single dose)", "value": 3418, "unit": "ng·h/mL"},
      {"measurement": "AUC(0-t)", "setting": "[3]; [14]", "value": 2792, "unit": "ng·h/mL"},
      {"measurement": "Cmax", "setting": "[3]; [14]", "value": 624, "unit": "ng/mL"},
      {"measurement": "Tmax", "setting": "[3]; 150 mg BID (Table 5 tablet), Week 12 (repeated), n = 11, median", "value": 3, "unit": "h"},
      {"measurement": "CSF Aβ42 levels", "setting": "CSF Aβ42; treated AD patients, FIG. 1", "value": "reduced CSF Aβ42 levels"},
      {"measurement": "ratio of Aβ42/Aβ40 (CSF)", "setting": "CSF Aβ42; treated mild-to-moderate AD patients, FIGS. 2, 3 and 4", "value": "reduced the ratio of Aβ42/Aβ40"}
    ]}
  ]
}
